Test [1] can be described thus: Quantitative sensory evaluation, improvement of body taste and bitterness of combined high-intensity sweeteners (Examples 2 and 4). Particulars: for Bitterness: control 0, <0 improved; for Bitterness / Body taste: n=12; for Body taste: control 0, >0 improved. Further details: species or system human. As to the method: The quantitative sensory evaluation test was performed as follows. As for a combination standard solution of each sweeteners, the following compounds were used. The following standard solutions have been adjusted so they each have almost the same degree of sweetness.
ii) APM (0.02 g/dl)+Ace-K (0.005 g/dl) [APM:Ace-K=8:2 as a ratio of degrees of sweetness]
iii) Sucralose (0.0058 g/dl)+Ace-K (0.0075 g/dl) [sucralose:Ace-K=7:3 as a ratio of degrees of sweetness]
iv) APM (0.0125 g/dl)+sucralose (0.0042 g/dl) [APM:sucralose=1:1 as a ratio of degrees of sweetness]
v) APM (0.0125 g/dl)+sucralose (0.0021 g/dl)+Ace-K (0.0063 g/dl) [APM:sucralose:Ace-K=2:1:1 as a ratio of degrees of sweetness]
To distilled water containing each of the sweeteners, γ-Glu-Cys-Gly (glutathione), γ-Glu-Val-Gly or γ-Glu-Abu-Gly was added and mixed at concentrations of 0.0001 to 1 g/dl, and then the degree of the improvement of the body taste and the improvement of the bitterness on the sweet taste was measured. The addition effect of the peptides on each of the high-intensity sweeteners was evaluated with reference to sucrose.
When a mixture is more acidic than the standard control solution, the pH of the mixture was adjusted with NaOH to achieve a range of pH±0.2 with respect to the pH of the standard solution before use.
The sensory evaluation for the improvement of the body taste was performed with n=12 on the basis of the following criteria: a control (obtained by adding distilled water only and without adding glutathione and/or the peptide) was defined as 0, and by using the control as a standard, the follow were defined: weak: −2 points; slightly weak: −1 point; slightly strong: 1 point, and strong: 2 points. A higher score than 0 means that the sample has a body taste-improving effect.
Alternatively, the sensory evaluation for the improvement of the bitterness was performed with n=12 on the basis of the following criteria: a control (obtained by adding distilled water only and without adding glutathione and/or the peptide) was defined as 0, and by using the control as a standard, the following were defined: weak: −2 points; slightly weak: −1 point; slightly strong: 1 point, and strong: 2 points. A lower score than 0 means that the sample improves the bitterness.
The quantitative sensory evaluation test was performed as follows. As for combination standard solution of each sweeteners, the following compound was used. The following standard solutions have been adjusted so they each have almost the same degree of sweetness.
To distilled water containing each sweetener mentioned above, γ-Glu-Val-Gly or cinacalcet was added and mixed at concentrations of 0.0001 to 1 g/dl, and then each degree of the improvement of the body taste and the improvement of the bitterness on the sweet taste was measured. The addition effect of the sample on each of the high intensity sweeteners was evaluated with reference to sucrose.
When a mixture is more acidic than the standard control solution, the pH of the sample was adjusted with NaOH to achieve a range of pH±0.2 with respect to the pH of the standard solution before use.
The sensory evaluation for the improvement of the body taste was performed with n=12 on the basis of the following criteria: a control (obtained with adding distilled water only and without adding the sample) was defined as 0, and by using the control as a standard, the following were defined: weak: −2 points; slightly weak: −1 point; slightly strong: 1 point, and strong: 2 points. A higher score than 0 means that the sample improves the body taste.
Alternatively, the sensory evaluation for the improvement of the bitterness was performed with n=12 on the basis of the following criteria: a control (obtained with adding distilled water only and without adding the sample) was defined as 0, and by using the control as a standard, the following were defined: weak: −2 points; slightly weak: −1 point; slightly strong: 1 point, and strong: 2 points. […]

Test [2] is described as follows: Quantitative sensory evaluation test, intensity of kokumi-imparting activity. Particulars: sample 0.1 g/dl; for Kokumi intensity, aftertaste / Kokumi intensity, initial and middle taste: control 0, glutathione 3 points.
Setting [3] is: APM 0.0125 + sucralose 0.0021 + Ace-K 0.0063 g/dl (2:1:1), sample 0.0001 g/dl.
The mark [4] stands for this setting: APM 0.0125 + sucralose 0.0021 + Ace-K 0.0063 g/dl (2:1:1), sample 0.001 g/dl.
Where [5] appears, read: APM 0.0125 g/dl + sucralose 0.0042 g/dl (1:1), sample 0.0001 g/dl.
The mark [6] stands for this setting: APM 0.0125 g/dl + sucralose 0.0042 g/dl (1:1), sample 0.001 g/dl.
Where [7] appears, read: APM 0.02 g/dl + Ace-K 0.005 g/dl (8:2), sample 0.0001 g/dl.
The mark [8] stands for this setting: APM 0.02 g/dl + Ace-K 0.005 g/dl (8:2), sample 0.001 g/dl.
[9] abbreviates: sucralose 0.0058 g/dl + Ace-K 0.0075 g/dl (7:3), sample 0.0001 g/dl.
The mark [10] stands for this setting: sucralose 0.0058 g/dl + Ace-K 0.0075 g/dl (7:3), sample 0.001 g/dl.
Where [11] appears, read: APM 0.0125 + sucralose 0.0021 + Ace-K 0.0063 g/dl (2:1:1), sample 0.05 g/dl.
[12] abbreviates: APM 0.0125 g/dl + sucralose 0.0042 g/dl (1:1), sample 0.05 g/dl.
The mark [13] stands for this setting: APM 0.02 g/dl + Ace-K 0.005 g/dl (8:2), sample 0.05 g/dl.
The mark [14] stands for this setting: sucralose 0.0058 g/dl + Ace-K 0.0075 g/dl (7:3), sample 0.05 g/dl.

`C[C@@H](NCCCc1cccc(C(F)(F)F)c1)c1cccc2ccccc12` [Cinacalcet, (R)—N-(3-(3-(trifluoromethyl)phenyl)propyl)-1-(1-naphthyl)ethylamine, reference compound]: the Bitterness in test [1] (setting [3]) is −0.2 points; in test [1] (setting [4]) it was −0.4 points; in test [1] (setting [5]), −0.2 points; in test [1] (setting [6]), −0.2 points; in test [1] (setting [7]), −0.1 points; in test [1] (setting [8]), −0.3 points. Further, the Bitterness in test [1] (setting [9]) is listed as −0.1 points; in test [1] (setting [10]), −0.3 points. The Body taste is 0.5 points in test [1] (setting [3]); 1.1 points in test [1] (setting [4]); 0.5 points in test [1] (setting [5]); 1.1 points in test [1] (setting [6]); 0.5 points in test [1] (setting [7]); 1.1 points in test [1] (setting [8]). Moreover, the Body taste in test [1] (setting [9]) is reported as 0.8 points; in test [1] (setting [10]), 1.5 points. For the same compound, the Taste profile result in test [1] (APM:Ace-K = 8:2, sample 0.0001 g/dl) is “Sweet taste with growth is enhanced in middle”; in test [1] (APM:Ace-K = 8:2, sample 0.001 g/dl), “Sweet taste with growth is enhanced in middle”; in test [1] (APM:sucralose:Ace-K = 2:1:1, sample 0.0001 g/dl), “Harmony and richness are present in middle”; in test [1] (APM:sucralose:Ace-K = 2:1:1, sample 0.001 g/dl) it was “Harmony and richness are present in middle”. In addition, the “improvement of the body taste (conclusion in words)” value in test [1] (combined sweetener solutions, Tables 9 to 12 and 16 to 19) is “improves the body taste at almost the same concentration”.

For `N[C@@H](CCC(=O)N[C@@H](CS)C(=O)NCC(=O)O)C(=O)O` [γ-Glu-Cys-Gly, reference compound], the “Kokumi intensity, aftertaste” value in test [2] (n=3), in test [2] (n=5) and in test [2] (n=12) was 3.0 points in each case. Also, the “Kokumi intensity, initial and middle taste” value in test [2] (n=3), in test [2] (n=5) and in test [2] (n=12) was 3.0 points each time. Further, in test [2] (n=3), the Evaluation comments entry is given as “Thickness,”. The Taste profile entry in test [2] (n=5) is reported as “Thickness,”; in test [2] (n=12), “Thickness,”; in test [1] (APM:Ace-K = 8:2, sample 0.05 g/dl), “Sweet taste is wholly enhanced”; in test [1] (APM:sucralose = 1:1, sample 0.05 g/dl) it was “Sweet taste is enhanced in middle taste”; in test [1] (APM:sucralose:Ace-K = 2:1:1, sample 0.05 g/dl), “Sweet taste is wholly enhanced”; in test [1] (sucralose:Ace-K = 7:3, sample 0.05 g/dl) it was “Sweet taste is enhanced in middle taste”. The Bitterness in test [1] (setting [11]), in test [1] (setting [12]), in test [1] (setting [13]) and in test [1] (setting [14]) was −0.3 points throughout. The Body taste in test [1] (setting [11]) amounted to 1.2 points; in test [1] (setting [12]), 1.0 points; in test [1] (setting [13]), 1.0 points; in test [1] (setting [14]), 1.0 points.

These data come from patent US9420813B2, “Sweetener” (AJINOMOTO CO., INC., priority 2007, dated 2016).
